System: phospho-IκBα (Ser32)
Test: NanoBiT cell-based immunoassay, phosphorylated IκBα in MCF-7 cells
Design: species or system human
Details: for Raw data / Subtract reagent background: TNF
Experimental: Prior to NanoBiT Cell-Based Immunoassay, 50,000 cells were seeded in 160 µl of complete growth media per well of a 96-well plate and incubated overnight. The cells were checked under microscope and it was determined that 50,000 cells per well in 96-well plate is under 90% confluency for all cells tested. If necessary, the cell culture media were replaced with serum-free media after the cells were stably adherent on the plate and incubated overnight. To treat cells with activators or inhibitors, medium was changed to 30 µl of medium containing inhibitors. If activation of a specific pathway is needed, the cells were stimulated with 10 µl of medium containing activators. To lyse the cells, 10 µl of lysis buffer containing 0.1% digitonin diluted in 1X immunoassay buffer with protease and phosphatase inhibitors was added and the plates were mixed vigorously for 20 min. Then, 50 µl of an antibody mix containing two primary antibodies against the target protein and NanoBiT detecting antibodies (0.3 µl each per well), diluted in 1X immunoassay buffer was added to the lysates. The plates were incubated at 23 °C for 90 min, followed by the addition of 25 µl of Nano-Glo® reagent consisting of Nano-Glo® Luciferase Assay Substrate mixed with 1X immunoassay buffer. Luminescence was measured using a plate-reading luminometer.
In all, 50,000 MCF-7 cells were seeded in 160 µl complete growth medium per well of a 96-well plate and incubated overnight. Half of the cells were treated with 50 ng per ml TNFα and half with vehicle. Cells were lysed as described above and a mixture of NanoBiT secondary antibodies with primary antibodies at the matrix concentrations described in Fig. 2a were added. After 90 min incubation, the Nano-Glo® reagent was added to the reactions as described above and luminescence was measured using a plate-reading luminometer.
Single dose or dose response inhibitor treatments were performed prior to activation of the pathways as follows. For IκBα, the cells were treated in 30 µl medium with IKK16 or MG132 for 60 min before the addition of 10 µl of DMEM containing appropriate concentration of TNFα. To measure phosphorylation of AKT or STAT3, the corresponding NanoBiT immunoassays were developed with MCF-7 or A431 cells, respectively, according the same scheme used to develop the IκBα assay using the primary antibodies for AKT and STAT3 described in the reagents section. For the AKT assay, MCF-7 cells were incubated overnight in phenol-red free DMEM medium (Gibco #21063-029) without serum. Treatment with LY294002 was performed in 30 µl medium and cells were incubated for 60 min before the addition of 1 µM Insulin. To measure STAT3 phosphorylation, A431 cells were incubated overnight in DMEM medium without serum. […] After addition of the stimulators, the cells were incubated for additional times as follows. IκBα phosphorylation and degradation analyses required both time courses and single time points as described in figures. […] The NanoBiT immunoassay protocol was followed as described above.
All 96-well assay plates were read using a GloMax® 96 Microplate Luminometer from Promega. The instrument was set to 0.5 s integration time. In order to obtain net change of signal, the reagent background values (signal from the well containing all reagent except primary antibodies) were subtracted from the sample values. To plot and analyze the data, Microsoft Excel and GraphPad Prism® Software were used. IC50 values were determined by using a nonlinear regression fit to a sigmoidal dose response (variable slope).

[1] = plate #1, IkB Ab #1 75 ng/ml, P-IkB Ab #1 150 ng/ml
[2] = plate #1, IkB Ab #1 75 ng/ml, P-IkB Ab #1 300 ng/ml
[3] = plate #1, IkB Ab #1 75 ng/ml, P-IkB Ab #1 600 ng/ml
[4] = plate #1, IkB Ab #1 75 ng/ml, P-IkB Ab #1 1200 ng/ml
[5] = plate #1, IkB Ab #1 150 ng/ml, P-IkB Ab #1 75 ng/ml
[6] = plate #1, IkB Ab #1 150 ng/ml, P-IkB Ab #1 150 ng/ml
[7] = plate #1, IkB Ab #1 150 ng/ml, P-IkB Ab #1 300 ng/ml
[8] = plate #1, IkB Ab #1 150 ng/ml, P-IkB Ab #1 600 ng/ml
[9] = plate #1, IkB Ab #1 150 ng/ml, P-IkB Ab #1 1200 ng/ml
[10] = plate #1, IkB Ab #1 300 ng/ml, P-IkB Ab #1 75 ng/ml
[11] = plate #1, IkB Ab #1 300 ng/ml, P-IkB Ab #1 150 ng/ml
[12] = plate #1, IkB Ab #1 300 ng/ml, P-IkB Ab #1 300 ng/ml
[13] = plate #1, IkB Ab #1 300 ng/ml, P-IkB Ab #1 600 ng/ml
[14] = plate #1, IkB Ab #1 300 ng/ml, P-IkB Ab #1 1200 ng/ml
[15] = plate #1, IkB Ab #1 600 ng/ml, P-IkB Ab #1 75 ng/ml
[16] = plate #1, IkB Ab #1 600 ng/ml, P-IkB Ab #1 150 ng/ml
[17] = plate #1, IkB Ab #1 600 ng/ml, P-IkB Ab #1 300 ng/ml
[18] = plate #1, IkB Ab #1 600 ng/ml, P-IkB Ab #1 600 ng/ml
[19] = plate #1, IkB Ab #1 600 ng/ml, P-IkB Ab #1 1200 ng/ml
[20] = plate #1, IkB Ab #1 1200 ng/ml, P-IkB Ab #1 75 ng/ml
[21] = plate #1, IkB Ab #1 1200 ng/ml, P-IkB Ab #1 150 ng/ml
[22] = plate #1, IkB Ab #1 1200 ng/ml, P-IkB Ab #1 300 ng/ml
[23] = plate #1, IkB Ab #1 1200 ng/ml, P-IkB Ab #1 600 ng/ml
[24] = plate #1, IkB Ab #1 1200 ng/ml, P-IkB Ab #1 1200 ng/ml
[25] = plate #2, IkB Ab #2 75 ng/ml, P-IkB Ab #1 75 ng/ml

Substance: TNFα
- Raw data [1]: 38800
- Subtract reagent background [1]: 19890
- Raw data [2]: 36190
- Subtract reagent background [2]: 17280
- Raw data [3]: 29500
- Subtract reagent background [3]: 10590
- Raw data [4]: 23430
- Subtract reagent background [4]: 4520
- Raw data [5]: 31770
- Subtract reagent background [5]: 12860
- Raw data [6]: 37260
- Subtract reagent background [6]: 18350
- Raw data [7]: 34880
- Subtract reagent background [7]: 15970
- Raw data [8]: 27610
- Subtract reagent background [8]: 8700
- Raw data [9]: 22810
- Subtract reagent background [9]: 3900
- Raw data [10]: 28900
- Subtract reagent background [10]: 9990
- Raw data [11]: 32520
- Subtract reagent background [11]: 13610
- Raw data [12]: 32030
- Subtract reagent background [12]: 13120
- Raw data [13]: 24980
- Subtract reagent background [13]: 6070
- Raw data [14]: 21690
- Subtract reagent background [14]: 2780
- Raw data [15]: 24730
- Subtract reagent background [15]: 5820
- Raw data [16]: 27710
- Subtract reagent background [16]: 8800
- Raw data [17]: 26820
- Subtract reagent background [17]: 7910
- Raw data [18]: 24690
- Subtract reagent background [18]: 5780
- Raw data [19]: 22170
- Subtract reagent background [19]: 3260
- Raw data [20]: 22890
- Subtract reagent background [20]: 3980
- Raw data [21]: 24970
- Subtract reagent background [21]: 6060
- Raw data [22]: 24110
- Subtract reagent background [22]: 5200
- Raw data [23]: 24380
- Subtract reagent background [23]: 5470
- Raw data [24]: 22870
- Subtract reagent background [24]: 3960
- Fold change (TNF-treated /Non-treated) (plate #1, IkB Ab #1 (Mouse) 75 ng/ml, P-IkB Ab #1 (Rabbit) 150 ng/ml): 8.219
- Fold change (TNF-treated /Non-treated) (plate #1, IkB Ab #1 (Mouse) 75 ng/ml, P-IkB Ab #1 (Rabbit) 150 ng/ml, listed as TNF): 8.2
- Fold change (TNF-treated /Non-treated) (plate #1, IkB Ab #1 (Mouse) 75 ng/ml, P-IkB Ab #1 (Rabbit) 300 ng/ml): 4.364
- Fold change (TNF-treated /Non-treated) (plate #1, IkB Ab #1 (Mouse) 75 ng/ml, P-IkB Ab #1 (Rabbit) 300 ng/ml, listed as TNF): 4.4
- Fold change (TNF-treated /Non-treated) (plate #1, IkB Ab #1 (Mouse) 75 ng/ml, P-IkB Ab #1 (Rabbit) 600 ng/ml): 2.688
- Fold change (TNF-treated /Non-treated) (plate #1, IkB Ab #1 (Mouse) 75 ng/ml, P-IkB Ab #1 (Rabbit) 600 ng/ml, listed as TNF): 2.7
- Fold change (TNF-treated /Non-treated) (plate #1, IkB Ab #1 (Mouse) 75 ng/ml, P-IkB Ab #1 (Rabbit) 1200 ng/ml): 1.8374
- Fold change (TNF-treated /Non-treated) (plate #1, IkB Ab #1 (Mouse) 75 ng/ml, P-IkB Ab #1 (Rabbit) 1200 ng/ml, listed as TNF): 1.8
- Fold change (TNF-treated /Non-treated) (plate #1, IkB Ab #1 (Mouse) 150 ng/ml, P-IkB Ab #1 (Rabbit) 150 ng/ml): 9.557
- Fold change (TNF-treated /Non-treated) (plate #1, IkB Ab #1 (Mouse) 150 ng/ml, P-IkB Ab #1 (Rabbit) 150 ng/ml, listed as TNF): 9.6
- Fold change (TNF-treated /Non-treated) (plate #1, IkB Ab #1 (Mouse) 150 ng/ml, P-IkB Ab #1 (Rabbit) 300 ng/ml): 4.656
- Fold change (TNF-treated /Non-treated) (plate #1, IkB Ab #1 (Mouse) 150 ng/ml, P-IkB Ab #1 (Rabbit) 300 ng/ml, listed as TNF): 4.7
- Fold change (TNF-treated /Non-treated) (plate #1, IkB Ab #1 (Mouse) 150 ng/ml, P-IkB Ab #1 (Rabbit) 600 ng/ml): 2.797
- Fold change (TNF-treated /Non-treated) (plate #1, IkB Ab #1 (Mouse) 150 ng/ml, P-IkB Ab #1 (Rabbit) 600 ng/ml, listed as TNF): 2.8
- Fold change (TNF-treated /Non-treated) (plate #1, IkB Ab #1 (Mouse) 150 ng/ml, P-IkB Ab #1 (Rabbit) 1200 ng/ml): 0.8904
- Fold change (TNF-treated /Non-treated) (plate #1, IkB Ab #1 (Mouse) 150 ng/ml, P-IkB Ab #1 (Rabbit) 1200 ng/ml, listed as TNF): 0.9
- Fold change (TNF-treated /Non-treated) (plate #1, IkB Ab #1 (Mouse) 300 ng/ml, P-IkB Ab #1 (Rabbit) 150 ng/ml, listed as TNF): 4.1
- Fold change (TNF-treated /Non-treated) (plate #1, IkB Ab #1 (Mouse) 300 ng/ml, P-IkB Ab #1 (Rabbit) 300 ng/ml, listed as TNF): 3.3
- Fold change (TNF-treated /Non-treated) (plate #1, IkB Ab #1 (Mouse) 300 ng/ml, P-IkB Ab #1 (Rabbit) 600 ng/ml, listed as TNF): 1.6
- Fold change (TNF-treated /Non-treated) (plate #1, IkB Ab #1 (Mouse) 300 ng/ml, P-IkB Ab #1 (Rabbit) 1200 ng/ml, listed as TNF): 1.0
- Fold change (TNF-treated /Non-treated) (plate #1, IkB Ab #1 (Mouse) 600 ng/ml, P-IkB Ab #1 (Rabbit) 75 ng/ml, listed as TNF): 4.9
- Fold change (TNF-treated /Non-treated) (plate #1, IkB Ab #1 (Mouse) 600 ng/ml, P-IkB Ab #1 (Rabbit) 150 ng/ml, listed as TNF): 5.1
- Fold change (TNF-treated /Non-treated) (plate #1, IkB Ab #1 (Mouse) 600 ng/ml, P-IkB Ab #1 (Rabbit) 300 ng/ml, listed as TNF): 3.0
- Fold change (TNF-treated /Non-treated) (plate #1, IkB Ab #1 (Mouse) 600 ng/ml, P-IkB Ab #1 (Rabbit) 600 ng/ml, listed as TNF): 2.3
- Fold change (TNF-treated /Non-treated) (plate #1, IkB Ab #1 (Mouse) 600 ng/ml, P-IkB Ab #1 (Rabbit) 1200 ng/ml, listed as TNF): 1.1
- Fold change (TNF-treated /Non-treated) (plate #1, IkB Ab #1 (Mouse) 1200 ng/ml, P-IkB Ab #1 (Rabbit) 75 ng/ml, listed as TNF): 2.5
- Fold change (TNF-treated /Non-treated) (plate #1, IkB Ab #1 (Mouse) 1200 ng/ml, P-IkB Ab #1 (Rabbit) 150 ng/ml, listed as TNF): 3.0
- Fold change (TNF-treated /Non-treated) (plate #1, IkB Ab #1 (Mouse) 1200 ng/ml, P-IkB Ab #1 (Rabbit) 300 ng/ml, listed as TNF): 1.9
- Fold change (TNF-treated /Non-treated) (plate #1, IkB Ab #1 (Mouse) 1200 ng/ml, P-IkB Ab #1 (Rabbit) 600 ng/ml, listed as TNF): 2.0
- Fold change (TNF-treated /Non-treated) (plate #1, IkB Ab #1 (Mouse) 1200 ng/ml, P-IkB Ab #1 (Rabbit) 1200 ng/ml, listed as TNF): 1.8
- Raw data [25]: 20520
- Subtract reagent background [25]: 2000
- Raw data (plate #2, IkB Ab #2 75 ng/ml, P-IkB Ab #1 150 ng/ml): 20690

Source: article PMC6941952, “A homogeneous bioluminescent immunoassay to probe cellular signaling pathway regulation” (Communications Biology, 2020)
